Test systems include CCRF-CEM leukemia; HCC-2998 colon; HOP-92 NSCLC; HT29 colon; MOLT-4 leukemia; OVCAR-4 ovarian; OVCAR-5 ovarian; SK-MEL-2 melanoma.
Experiment in all cases: NCI-60 cell line screen, 48 h

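Five compound concentrations were applied to cells in 96-well plates for 48 hours; endpoints were derived by simple linear interpolation of the resulting dose-response curve. GI50 is the concentration that inhibits growth by half. TGI denotes the concentration required for complete inhibition of growth.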 A value given as a limit tells only on which side of the number the result lay.

Regarding `Nc1c(C(=O)Nc2cccc3ccccc23)sc2nc3c(cc12)CCCC3`, the GI50 was 0.658 µM in the experiment with CCRF-CEM leukemia; 4.17 µM in the experiment on HCC-2998 colon; 0.0769 µM in the experiment with HOP-92 NSCLC; 1.18 µM in the experiment with HT29 colon; 0.637 µM in the experiment with MOLT-4 leukemia; 1.11 µM with OVCAR-4 ovarian. Further, the GI50 is greater than 100 µM in the experiment with OVCAR-5 ovarian and 1.04 µM in the experiment on SK-MEL-2 melanoma. In addition, the TGI in the experiment on CCRF-CEM leukemia was greater than 100 µM; in the experiment on HCC-2998 colon, greater than 100 µM; in the experiment on HOP-92 NSCLC, 9.29 µM; with HT29 colon it was greater than 100 µM; in the experiment with MOLT-4 leukemia, greater than 100 µM; in the experiment with OVCAR-4 ovarian it was greater than 100 µM. Moreover, the TGI in the experiment with OVCAR-5 ovarian and in the experiment on SK-MEL-2 melanoma was greater than 100 µM each time.
Consider `CCOC(=O)Nc1nc2c(F)c(F)c(F)cc2s1`, for which the GI50 is greater than 100 µM in the experiment with CCRF-CEM leukemia; greater than 100 µM in the experiment with HCC-2998 colon; 15.4 µM in the experiment with HOP-92 NSCLC; greater than 100 µM with HT29 colon; greater than 100 µM in the experiment on MOLT-4 leukemia; 37.5 µM in the experiment with OVCAR-4 ovarian. The values for the GI50 in the experiment with OVCAR-5 ovarian and in the experiment with SK-MEL-2 melanoma were greater than 100 µM and 53.1 µM, respectively. In addition, the TGI is greater than 100 µM in the experiment on CCRF-CEM leukemia; greater than 100 µM with HCC-2998 colon; 97.5 µM in the experiment on HOP-92 NSCLC; greater than 100 µM in the experiment with HT29 colon; greater than 100 µM with MOLT-4 leukemia; greater than 100 µM with OVCAR-4 ovarian. Also, the TGI in the experiment with OVCAR-5 ovarian and with SK-MEL-2 melanoma was greater than 100 µM each time.
As for `COc1cc(/C=C/C(=O)c2c(C)n([O-])c3cc(C)c(C)cc3[n+]2=O)cc(OC)c1OC`, the GI50 in the experiment with CCRF-CEM leukemia was 5.68 µM; in the experiment on HCC-2998 colon, 14.2 µM; with HOP-92 NSCLC, 18.2 µM; with HT29 colon, 18.6 µM; in the experiment with MOLT-4 leukemia, 6.77 µM; in the experiment on OVCAR-4 ovarian it was 16.5 µM. For the same molecule, the GI50 is 17.6 µM in the experiment on OVCAR-5 ovarian and 16.4 µM with SK-MEL-2 melanoma. Also, the TGI in the experiment with CCRF-CEM leukemia is greater than 100 µM; in the experiment on HCC-2998 colon, 32.6 µM; in the experiment on HOP-92 NSCLC, 42.5 µM; in the experiment with HT29 colon it was 34.7 µM; in the experiment with MOLT-4 leukemia it was greater than 100 µM; in the experiment on OVCAR-4 ovarian it was 48 µM. The TGI in the experiment with OVCAR-5 ovarian came out at 47.1 µM; in the experiment on SK-MEL-2 melanoma, 32.9 µM.
Consider `Cc1cc(N(CCCNc2ccnc3cc(Cl)ccc23)Cc2cccs2)nc(Cl)n1`, for which the GI50 with CCRF-CEM leukemia was 5.57 µM; in the experiment on HCC-2998 colon, 4.05 µM; with HOP-92 NSCLC, 2.63 µM; in the experiment with HT29 colon, 1.51 µM; in the experiment with MOLT-4 leukemia, 2.72 µM; with OVCAR-4 ovarian, 1.69 µM. The values for the GI50 in the experiment on OVCAR-5 ovarian and in the experiment with SK-MEL-2 melanoma were 5.9 µM and 12.3 µM, respectively. Besides, the TGI in the experiment with CCRF-CEM leukemia was greater than 100 µM; in the experiment with HCC-2998 colon, 17.8 µM; in the experiment on HOP-92 NSCLC, 20 µM; in the experiment with HT29 colon it was 12.4 µM; in the experiment with MOLT-4 leukemia, 22.9 µM; in the experiment on OVCAR-4 ovarian it was 14.6 µM. For the same molecule, the figures for the TGI in the experiment on OVCAR-5 ovarian and in the experiment on SK-MEL-2 melanoma were 24.3 µM and 29.6 µM, respectively.
For `COc1cc(C2c3cc4c(cc3C3OC(=O)C2C3CO)OCO4)cc(OC)c1OC` (centres undefined), the GI50 in the experiment on CCRF-CEM leukemia is 0.0271 µM; in the experiment on HCC-2998 colon, 0.0297 µM; in the experiment with HOP-92 NSCLC it was less than 0.0108 µM; in the experiment on HT29 colon, 0.012 µM; with MOLT-4 leukemia, 0.0385 µM; with OVCAR-4 ovarian, 0.0446 µM. Further, the GI50 with OVCAR-5 ovarian is 0.0539 µM; in the experiment with SK-MEL-2 melanoma it was 0.0337 µM. For the same molecule, the TGI in the experiment on CCRF-CEM leukemia was greater than 100 µM; in the experiment with HCC-2998 colon, 0.0899 µM; in the experiment on HOP-92 NSCLC, 0.0869 µM; in the experiment with HT29 colon, greater than 100 µM; with MOLT-4 leukemia it was greater than 100 µM; in the experiment on OVCAR-4 ovarian, greater than 100 µM. Moreover, the TGI with OVCAR-5 ovarian and with SK-MEL-2 melanoma was greater than 100 µM in each case.
On to `Cc1ccc(C(=O)Nc2ccc(CN3CCN(C)CC3)c(C(F)(F)F)c2)cc1C#Cc1cncc2ncccc12`, for which the GI50 in the experiment on CCRF-CEM leukemia was 0.902 µM; in the experiment on HCC-2998 colon, 2.47 µM; with HOP-92 NSCLC it was 0.147 µM; in the experiment on HT29 colon, 0.142 µM; with MOLT-4 leukemia, 0.353 µM; in the experiment with OVCAR-4 ovarian, 0.289 µM. Also, the GI50 is 0.653 µM in the experiment with OVCAR-5 ovarian and 0.191 µM with SK-MEL-2 melanoma. In addition, the TGI in the experiment with CCRF-CEM leukemia was determined as 3.61 µM; in the experiment on HCC-2998 colon it was 22.2 µM; in the experiment on HOP-92 NSCLC it was 1.28 µM; in the experiment on HT29 colon it was 1.41 µM; with MOLT-4 leukemia, 16.8 µM; with OVCAR-4 ovarian it was 4.75 µM. Further, the TGI in the experiment on OVCAR-5 ovarian was determined as 5.71 µM; in the experiment on SK-MEL-2 melanoma it was 0.599 µM.
As to `COc1ccc(-c2nnc3n(C)c(=O)c4ccccc4n23)cc1O`, the GI50 is 1.81 µM in the experiment with CCRF-CEM leukemia; 2.98 µM in the experiment on HCC-2998 colon; 1.31 µM in the experiment on HOP-92 NSCLC; 3.94 µM in the experiment on HT29 colon; 1.17 µM in the experiment on MOLT-4 leukemia; 4.32 µM in the experiment on OVCAR-4 ovarian. For the same molecule, the GI50 in the experiment with OVCAR-5 ovarian was 15.8 µM; in the experiment with SK-MEL-2 melanoma it was 0.14 µM. Further, the TGI in the experiment with CCRF-CEM leukemia was greater than 100 µM; in the experiment on HCC-2998 colon, 97.9 µM; in the experiment on HOP-92 NSCLC it was 61.5 µM; in the experiment on HT29 colon, 43.6 µM; in the experiment with MOLT-4 leukemia, greater than 100 µM; in the experiment on OVCAR-4 ovarian, greater than 100 µM. Moreover, the TGI in the experiment with OVCAR-5 ovarian was greater than 100 µM; with SK-MEL-2 melanoma, 37.5 µM.
In the case of `COc1ccc2nc(-c3ccccc3)cc(Nc3ccc(/C(C)=N/O)cc3)c2c1`, the GI50 in the experiment on CCRF-CEM leukemia is 3.48 µM; in the experiment with HCC-2998 colon, 2.19 µM; in the experiment with HOP-92 NSCLC it was 0.821 µM; with HT29 colon it was 2.7 µM; in the experiment with MOLT-4 leukemia it was 3.73 µM; in the experiment on OVCAR-4 ovarian it was 3.9 µM. Moreover, the GI50 in the experiment on OVCAR-5 ovarian was 5.5 µM; in the experiment on SK-MEL-2 melanoma it was 88.4 µM. For the same molecule, the TGI is greater than 100 µM with CCRF-CEM leukemia; 4.94 µM in the experiment with HCC-2998 colon; 22.5 µM in the experiment with HOP-92 NSCLC; greater than 100 µM in the experiment with HT29 colon; greater than 100 µM in the experiment with MOLT-4 leukemia; greater than 100 µM with OVCAR-4 ovarian. The TGI in the experiment with OVCAR-5 ovarian and in the experiment with SK-MEL-2 melanoma was greater than 100 µM throughout.
In the case of `O=C(Cc1ccc(/C=C/C(=O)c2ncc[nH]2)cc1)Nc1ccc(Br)cc1`, the GI50 is 0.759 µM in the experiment with CCRF-CEM leukemia; 2.46 µM with HCC-2998 colon; 6.74 µM in the experiment with HOP-92 NSCLC; 0.726 µM in the experiment on HT29 colon; 4.02 µM with MOLT-4 leukemia; 3.42 µM in the experiment on OVCAR-4 ovarian. For the same molecule, the values for the GI50 in the experiment with OVCAR-5 ovarian and with SK-MEL-2 melanoma were 2.24 µM and greater than 16.7 µM, respectively. Moreover, the TGI in the experiment with CCRF-CEM leukemia is greater than 16.7 µM; in the experiment with HCC-2998 colon, 4.96 µM; in the experiment with HOP-92 NSCLC it was greater than 16.7 µM; in the experiment on HT29 colon, 3.71 µM; with MOLT-4 leukemia, greater than 16.7 µM; in the experiment on OVCAR-4 ovarian, greater than 16.7 µM. Also, the TGI with OVCAR-5 ovarian was 5.83 µM; in the experiment with SK-MEL-2 melanoma, greater than 16.7 µM.

For the origin of these results see PubChem BioAssay (NCI).
